Source: US6265551A, “Form of dipeptidylpeptidase IV (CD26) found in human serum, antibodies thereto, and uses thereof” (Dana-Farber Cancer Institute, Inc., priority 1996, dated 2001)
Where a SMILES comes first, the peptide text is derived from it. The star is where a group is joined. pNA = O=[N+]([O-])c1ccc(N*)cc1

Tests used:
[1] = target: serum DPPIV (soluble 175 kDa form of DPPIV/CD26, DPPT-L) purified from normal human serum; assay: DPPIV enzyme activity: Gly-Pro-pNA hydrolysis, Michaelis-Menten kinetics and inhibition; format: biochemical
Protocol: The DPPIV enzyme activities of the rsCD26 and serum DPPIV were analyzed by Michaelis-Menten kinetics by assessing kinetics of hydrolysis of substrate at different concentrations. […] To further exclude the possibility that we had purified irrelevant aminopeptidases which, working in concert or by sequential hydrolysis, could release the pNA chromophore from substrate, we tested a number of substrates which could be hydrolyzed by non-DPPIV aminopeptidases. One candidate for sequential hydrolysis is aminopeptidase M (3.4.11.2), but no hydrolysis of Ala-pNA, Arg-pNA or Leu-pNA was observed and activity by aminopolypeptidase (3.4.11.14) may be similarly excluded. The substrate succinyl-Gly-Pro-pNA was also not hydrolyzed. The only substrate apart from the dipeptide chromatogen Gly-Pro-pNA which could be hydrolyzed was Val-Ala-pNA, which was cleaved by both the serum DPPIV and rsCD26 (relative to rate of hydrolysis of Gly-Pro-pNA, hydrolysis of Val-Ala-pNA was 0.098 and 0.079, for rsCD26 and serum DPPIV, respectively). Although DPPIV primarily hydrolyses dipeptides with a proline in the penultimate position, it is well documented that alanine in the penultimate position may also render a dipeptide sequence susceptible to cleavage by DPPIV (8). […]
DPPIV activity: The primary substrate used for determining DPPIV activity in all assays was Gly-Pro-p-nitroanilide (Gly-Pro-pNA; Sigma), which is hydrolyzed by DPPIV to release pNA absorbing strongly at 405 nm. […] Inhibition of the hydrolysis of Gly-Pro-pNA was determined in the presence of the specific DPPIV inhibitor Diprotin A (Bachem, King of Prussia, Pa.). […] The pH optimum was determined substituting phosphate buffer (100 mM, pH4.5-pH9) in place of standard incubation buffer.
Serum DPPIV: Serum DPPIV was prepared by isolating from 100 ml of pooled normal human male AB serum the fraction of protein precipitated by 50-70% saturated ammonium sulfate. […] The DPPIV activity was eluted by a 0-0.5M NaCl gradient in equilibration buffer and all DPPIV activity was found in the 10 mM-50 mM NaCl eluate (determined by conductance). […]

[2] = target: recombinant soluble CD26 (rsCD26), full extracellular domain of human T cell membrane CD26/DPPIV, 105 kDa form, from transfected CHO cells (Homo sapiens, UniProt P27487); assay: as above; details: U = enzyme cleaving 1 mmol Gly-Pro-pNA/min at pH7.6 and 20° C.
recombinant soluble CD26 (rsCD26), full extracellular domain of human T cell membrane CD26/DPPIV, 105 kDa form, from transfected CHO cells, sequence (P27487 29-766 limits assumed): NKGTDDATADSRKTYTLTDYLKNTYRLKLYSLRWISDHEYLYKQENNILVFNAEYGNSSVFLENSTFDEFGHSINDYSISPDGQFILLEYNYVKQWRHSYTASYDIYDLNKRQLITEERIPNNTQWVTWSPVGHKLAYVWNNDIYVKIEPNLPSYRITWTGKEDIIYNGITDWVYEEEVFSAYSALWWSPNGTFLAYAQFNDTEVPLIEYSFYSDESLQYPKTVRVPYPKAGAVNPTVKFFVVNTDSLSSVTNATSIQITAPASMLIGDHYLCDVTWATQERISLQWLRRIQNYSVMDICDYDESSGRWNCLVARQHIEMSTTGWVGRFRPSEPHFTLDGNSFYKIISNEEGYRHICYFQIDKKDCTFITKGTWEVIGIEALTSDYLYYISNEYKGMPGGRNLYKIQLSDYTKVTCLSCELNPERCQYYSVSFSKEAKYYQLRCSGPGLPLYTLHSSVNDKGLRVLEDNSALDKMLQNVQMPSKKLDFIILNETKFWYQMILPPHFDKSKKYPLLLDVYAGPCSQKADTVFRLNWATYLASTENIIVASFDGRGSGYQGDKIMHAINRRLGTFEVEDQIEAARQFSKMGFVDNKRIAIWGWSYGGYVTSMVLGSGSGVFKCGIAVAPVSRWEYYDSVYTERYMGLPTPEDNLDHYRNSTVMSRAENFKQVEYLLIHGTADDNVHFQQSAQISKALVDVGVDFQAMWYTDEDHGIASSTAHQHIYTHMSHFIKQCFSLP
Protocol: DPPIV activity: The primary substrate used for determining DPPIV activity in all assays was Gly-Pro-p-nitroanilide (Gly-Pro-pNA; Sigma), which is hydrolyzed by DPPIV to release pNA absorbing strongly at 405 nm. Kinetic assays were performed using varying amounts of substrate in order to obtain estimates of the Km and Vmax using standard Michaelis-Menten kinetics. For screening assays of DPPIV activity, 150 ml of substrate was used at 1 mg/ml (2 mM final concentration) in phosphate buffer (pH7.6, 100 mM) in 96 well flat-bottomed microtiter plates together with 10 ml of appropriately diluted sample. For samples obtained after elution from the s-Sepharose column, the pH was raised to pH7.6 by addition of 25 μl of 1M Tris-HCl, pH7.6 to the reaction mixture. One unit (U) of enzyme activity was defined as the amount of enzyme that cleaved 1 mmol of Gly-Pro-pNA/min at pH7.6 and 20° C. […] The pH optimum was determined substituting phosphate buffer (100 mM, pH4.5-pH9) in place of standard incubation buffer.

| Vmax, Gly-Pro-pNA as substrate [2] [U/nmol rsCD26] | Km ([1]; Lineweaver-Burke transformation, substrate at different concentrations) [µM] | Vmax, Gly-Pro-pNA as substrate ([1]; U = enzyme cleaving 1 mmol Gly-Pro-pNA/min at pH7.6 and 20° C.) [U/nmol serum DPPIV] | SMILES | IC50 ([1]; read-out: IC50 (Diprotin A), inhibition of the hydrolysis of Gly-Pro-pNA) [µM] |
| --- | --- | --- | --- | --- |
|  |  |  | CC[C@H](C)[C@H](N)C(=O)N1CCC[C@H]1C(=O)N[C@H](C(=O)O)[C@@H](C)CC [Diprotin A] | 250 |
| 1.52 | 280 | 0.65 | NCC(=O)N1CCC[C@H]1C(=O)Nc1ccc([N+](=O)[O-])cc1 [Gly-Pro-pNA, Gly-Pro-p-nitroanilide] (H-Gly-Pro-pNA) |  |
